# In publication PMC10281575, “PfCRT mutations conferring piperaquine resistance in falciparum malaria shape the kinetics of quinoline drug binding and transport” (PLOS Pathogens, 2023):
# “And” between values parts separate entries of the source, which are not always exact repeats. Equal values may be shown once.
# Biological target: T1, PfCRT^Dd2_G353V (Plasmodium falciparum, UniProt Q8IBZ9, A220S/G353V/I356T/K76T/M74I/N326S/N75E/Q271E/R371I)
# T1 construct: expressed in transfected cells; host or cells: Xenopus laevis oocytes injected with in vitro transcribed RNA (pSP64T)
# T1 sequence (Q8IBZ9 1-424 M74I/N75E/K76T/A220S/Q271E/N326S/G353V/I356T/R371I): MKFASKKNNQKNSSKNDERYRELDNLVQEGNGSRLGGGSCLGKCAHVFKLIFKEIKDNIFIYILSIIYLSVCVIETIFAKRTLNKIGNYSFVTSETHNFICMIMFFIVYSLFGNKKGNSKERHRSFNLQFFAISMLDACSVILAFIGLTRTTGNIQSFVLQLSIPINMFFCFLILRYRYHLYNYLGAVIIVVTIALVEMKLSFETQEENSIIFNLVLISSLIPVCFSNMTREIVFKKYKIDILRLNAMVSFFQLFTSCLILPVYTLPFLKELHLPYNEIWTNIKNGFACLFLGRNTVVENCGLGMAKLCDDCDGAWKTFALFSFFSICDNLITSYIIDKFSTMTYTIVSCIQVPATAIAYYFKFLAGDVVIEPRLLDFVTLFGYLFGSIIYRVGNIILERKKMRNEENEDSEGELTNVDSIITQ
# Test: Verapamil inhibition of PfCRT-mediated CQ and PPQ transport in oocytes, PfCRT^Dd2_G353V
# Type: cell-based
# Conditions: individual replicates (S3 Fig)
# Description: In all cases, the PfCRT-mediated CQ and PPQ transport was inhibited in the presence of 100 μM verapamil (S3 Fig).
# Drug transport assays were performed as previously described. Briefly, measurements of radiolabeled drug uptake were made over 1 h, unless otherwise specified. […] Where specified, one or more unlabeled drugs were also present at the indicated concentrations. The direction of drug transport in the assays is from the extracellular medium (pH 6) into the oocyte cytosol (pH 7.2), which corresponds to the efflux of CQ or PPQ from the acidic digestive vacuole (pH 5.2) into the parasite cytosol (pH 7.2). The uptake assays were terminated by removing the oocytes from the reaction medium and washing them three times with 2 mL of ice-cold ND96 buffer. Each oocyte was transferred to a separate scintillation vial and lysed by the addition of 200 μL of a 5% SDS solution. The radioactivity in the sample was measured using a liquid scintillation analyser Tri-Carb 4910 TR (PerkinElmer). Water-injected oocytes were analyzed in parallel as a negative control. The buffer from each condition was measured in duplicate in parallel to each experiment to transform counts per minute into pmol of drug. Drug uptake attributable to PfCRT was determined by subtracting the background uptake from water-injected oocytes from that of PfCRT-expressing oocytes. In all cases, at least three independent experiments were performed on oocytes from different frogs, and for each condition in an experiment, measurements were made from 10 oocytes per treatment.
# Supplementary file ppat.1011436.s006.tif: S3 Fig Verapamil inhibits PfCRT-mediated transport of CQ and PPQ. […] Left panels, data is shown as individual biological replicates (coloured symbols) overlaid onto bars representing the Mean ± S.E.M. (error bars). A one-tailed Student’s t-test was performed between untreated (no VP) and treated (+ 100 μM VP) samples, and the obtained p values are shown. Right panels, the uptake in VP-treated samples was divided by the uptake in their corresponding untreated pairs and subtracted from 100% to get the percentage of uptake inhibition mediated by the presence of 100 μM verapamil in the extracellular medium. Error bars are S.E. (TIF) Click here for additional data file.
Structure (SMILES),PfCRTDd2_G353V-mediated PPQ transport (50 µM PPQ + 100 µM VP),PfCRTDd2_G353V-mediated PPQ transport (50 µM PPQ),PfCRTDd2_G353V-mediated CQ transport (50 µM CQ + 100 µM VP),PfCRTDd2_G353V-mediated CQ transport (50 µM CQ)
"Clc1ccc2c(N3CCN(CCCN4CCN(c5ccnc6cc(Cl)ccc56)CC4)CC3)ccnc2c1 [PPQ, piperaquine]",18.21 pmol oocyte-1 h-1 and 25.90 pmol oocyte-1 h-1 and 37.78 pmol oocyte-1 h-1 and 29.33 pmol oocyte-1 h-1 and 30.34 pmol oocyte-1 h-1,29.38 pmol oocyte-1 h-1 and 45.38 pmol oocyte-1 h-1 and 21.36 pmol oocyte-1 h-1 and 40.00 pmol oocyte-1 h-1 and 56.34 pmol oocyte-1 h-1 and 56.46 pmol oocyte-1 h-1 and 95.52 pmol oocyte-1 h-1 and 62.83 pmol oocyte-1 h-1,,
"CCN(CC)CCCC(C)Nc1ccnc2cc(Cl)ccc12 (stereo not shown) [CQ, chloroquine]",,,3.530 pmol oocyte-1 h-1 and 3.520 pmol oocyte-1 h-1 and 2.870 pmol oocyte-1 h-1 and 2.520 pmol oocyte-1 h-1 and 3.380 pmol oocyte-1 h-1,4.740 pmol oocyte-1 h-1 and 5.010 pmol oocyte-1 h-1 and 2.880 pmol oocyte-1 h-1 and 3.920 pmol oocyte-1 h-1 and 4.760 pmol oocyte-1 h-1
